In patent publication US20210387952A1, “SOLID STATE FORMS OF D[…] PROCESS FOR PREPARATION THEREOF” (TEVA PHARMACEUTICALS INTERNATIONAL GMBH, priority 2018, published 2021):

Assay: Solid state (polymorphic and chemical) stability on storage

Structure (SMILES): O=C(O)CNC(=O)c1c(O)n(C2CCCCC2)c(=O)n(C2CCCCC2)c1=O [Form 3, 2-[(1,3-dicyclohexyl-2,4,6-trioxo-1,3-diazinane-5-carbonyl)amino]acetic acid]
- polymorphic and chemical stability (crystalline solid form): polymorphically and chemically stable
- storage time over which the form is stable (stored in closed bottles): at least 2 weeks
